# How the values were obtained:
# [1] = biological target: Ab1 fibrils (Aβ(1–40)) (Homo sapiens, UniProt P05067); test: Fibril titration with ThT (fluorescence); format: binding
# Method: (§1) Fibril material (7.5 μg) was set up in 100 μL phosphate buffer in a 96 well half-area NBS plate (NUNC/Terma).
# [2] = biological target: Ab2 fibrils (Aβ(1–40)) (Homo sapiens, UniProt P05067); test: Fibril titration with ThT (fluorescence); format: binding
# Method: as §1
# [3] = biological target: T1, C-36 fibrils (Homo sapiens, UniProt P01009); test: Fibril titration with ThT (fluorescence); format: binding
# T1 construct: the 36 residue C-terminal fragment of α1-antitrypsin (C-36)
# T1 sequence (P01009 383-418 limits assumed): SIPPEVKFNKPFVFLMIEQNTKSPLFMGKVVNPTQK
# Method: as §1
# [4] = test system: chymotrypsinogen amorphous aggregates; test: Fibril titration with ThT (fluorescence); format: binding; details: TCA-induced amorphous aggregates
# Method: as §1
# [5] = biological target: T2, αSN fibrils (Homo sapiens, UniProt P37840); test: Fibril titration with ThT (fluorescence); format: binding; details: titration experiment
# Method: as §1
# [6] = biological target: T3, glucagon fibrils (Homo sapiens, UniProt P01275); test: Fibril titration with ThT (fluorescence); details: 7.5 μg fibril material, single-site binding model
# T3 construct: fibrils of the peptide hormone glucagon
# T3 sequence (P01275 53-81 limits assumed): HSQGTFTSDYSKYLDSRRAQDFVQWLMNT
# Method: as §1
# [7] = test system: T4, FAS4 AD aggregates; test: Fibril titration with ThT (fluorescence); format: binding, human; details: ThT mixed with FAS4 AD aggregates
# T4 construct: a mutated version of the FAS1-4 domain of TGFBIp
# Method: as §1
# [8] = test system: T5, Ab1 fibrils; test: Determination of the binding capacity (dye depletion from supernatant); design: species or system human; details: 2 nmol dye (20 µM) with 10 μg fibril material, one hour
# T5 construct: Synthetic amyloid β peptide 1–40 was purchased from Caslo Aps (Lyngby, Denmark); purchased Caslo Aps (Lyngby, Denmark); host or cells: synthetic peptide
# Method: (§2) Control samples (without fibril material) were prepared similarly. Fibrils and fibril-bound ligand were pelleted by centrifugation (17,000 g, 30 min) and the supernatant (90 μL) was transferred to a 96 well half-area plate (Corning 3881).
# [9] = test system: T6, Ab2 fibrils; test: as above; design: species or system human; details: 2 nmol dye (20 µM) with 10 μg fibril material, one hour
# T6 construct: Two structurally distinct fibrils of the Aβ(1–40) peptide associated with AD
# Method: as §2
# [10] = biological target: T1, C-36 fibrils; test: as above; details: 2 nmol dye (20 µM) with 10 μg fibril material, one hour
# Method: as §2
# [11] = biological target: T3, glucagon fibrils; test: as above; details: 2 nmol dye (20 µM) with 10 μg fibril material, one hour
# Method: as §2
# [12] = biological target: T2, αSN fibrils; test: as above; details: 2 nmol dye (20 µM) with 10 μg fibril material, one hour
# Method: as §2
# [13] = test system: T5, Ab1 fibrils; test: Fibril incubation with plasma, quantitative MS/MS of bound proteins; format: binding, human; details: 50:1 w/w plasma protein:fibril
# How it was run: (§3)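 Fibrils (20 μg) were incubated 1 h at room temperature with plasma (500 μg) or CSF (40 μg) protein in PBS/5 mM EDTA, then pelleted, washed in PBS and 1 M NaCl, and dissolved in 6 M GdmCl. Bound proteins were trypsin-digested for LC-MS/MS and quantified by XIC of the top three peptides, normalized to total ion intensity.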
# [14] = test system: T6, Ab2 fibrils; test: as above; format: binding, human; details: 50:1 w/w plasma protein:fibril
# [15] = biological target: T3, glucagon fibrils; test: as above; format: binding; details: 50:1 w/w plasma protein:fibril
# [16] = biological target: T1, C-36 fibrils; test: as above; format: binding; details: 50:1 w/w plasma protein:fibril
# [17] = biological target: T2, αSN fibrils; test: as above; format: binding; details: 50:1 w/w plasma protein:fibril
# How it was run: as §3
# [18] = test system: T7, FAS4-AD aggregates; test: as above; format: binding, human; details: 50:1 w/w plasma protein:fibril
# T7 construct: aggregates of a mutated version of the FAS1-4 domain of TGFBIp
# How it was run: as §3
# [19] = test system: fibril systems (Ab1, Ab2, glucagon, αSN and C-36); test: Fibril incubation with plasma, quantitative MS/MS, span over the fibril systems; format: binding, human
# Method: (§4) Plasma and CSF solutions were centrifuged (40,000 g, 20 min) to remove any aggregates. The protein concentration was determined using 280 nm absorbance assuming 1 Abs = 1 mg/mL. […] Control samples (without fibril material) were prepared similarly. All samples were incubated at room temperature for one hour under gentle agitation. Fibrils and fibril-bound proteins were pelleted by centrifugation at 17,000 g for 30 minutes. The supernatant (175 μL) was removed and the aggregate was re-suspended in 175 μL PBS and pelleted again before further preparation for gel analysis and spin-filter assisted digest for quantitative MS/MS.
# The fibril-protein pellets were transferred to spin-filters (0.22 μm), washed twice in PBS (100 μL) and once in 1 M NaCl (100 μL). The fibrils and fibril-bound proteins were dissolved by one-hour incubation in 100 μL 6 M guanidinium chloride followed by elution from the spin-filter. […]
# (§5) The micro-purified tryptic peptides were dissolved in 0.1% formic acid, injected and trapped on an in-house packed trap column (2 cm × 100 μm I.D) with RP ReproSil-Pur C18-AQ 3 μm resin (Dr. Maisch GmbH). […] Elution from the analytical column was performed with a linear gradient from 5% to 35% phase B (90% acetonitrile with 0.1% formic acid) over 20 min for protein identification and 50 min for quantitative analysis, respectively.
# All samples were analysed three times, yielding nine MS/MS experiments for each fibril for both plasma and CSF. For the area-based extracted ion chromatogram (XIC) quantification, the acquisition method was set up as an information-dependent acquisition (IDA) experiment collecting up to 25 MS/MS spectra in each 1.6 sec cycle using an exclusion window of 6 sec. […]
# XIC quantification was based on the average ion intensity of the three most abundant peptides for each protein. Only proteins quantified in at least four out of nine MS/MS experiments per fibril were included in the quantification. […]
# [20] = test system: T5, Ab1 fibrils; test: Fibril incubation with CSF, quantitative MS/MS of bound proteins; format: binding, human; details: 4:1 w/w CSF protein:fibril
# [21] = test system: T6, Ab2 fibrils; test: as above; format: binding, human; details: 4:1 w/w CSF protein:fibril
# [22] = biological target: T3, glucagon fibrils; test: as above; format: binding; details: 4:1 w/w CSF protein:fibril
# [23] = biological target: T1, C-36 fibrils; test: as above; format: binding; details: 4:1 w/w CSF protein:fibril
# [24] = biological target: T2, αSN fibrils; test: as above; format: binding; details: 4:1 w/w CSF protein:fibril
# [25] = test system: T7, FAS4-AD aggregates; test: as above; format: binding, human; design: key to Identification status of CSF protein bound: FAS4-AD: *: Identified, but not quantified; —: Not identified in any of the samples; details: symbol cells
# [26] = test system: fibril systems (Ab1, Ab2, glucagon, αSN and C-36); test: Fibril incubation with CSF, quantitative MS/MS, span over the fibril systems; format: binding, human
# Method: as §4, with “MS/MS. […]” for “MS/MS.”
# as §5
# All samples were analysed three times, yielding nine MS/MS experiments for each fibril for both plasma and CSF. […]
# [27] = 7.5 μg fibril material, two-site binding model
# Ab1 fibrils (Aβ(1–40)), sequence (P05067 672-711): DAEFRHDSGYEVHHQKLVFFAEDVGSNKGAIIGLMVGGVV
# Ab2 fibrils (Aβ(1–40)), sequence (P05067 672-711): as above
molecule,measurement,setting,value
"Cc1ccc2c(c1)sc(-c1ccc(N(C)C)cc1)[n+]2C [ThT, Thioflavin T]",Imax1,[1]; [27],"23,000 rfu"
same,Imax2,[1]; [27],"−22,000 rfu"
same,ThT fluorescence level,[1]; titration experiment,"2–5,000 RFU"
same,Imax1,[2]; [27],"23,000 rfu"
same,Imax2,[2]; [27],"−21,250 rfu"
same,ThT fluorescence level,[2]; titration experiment,"2–5,000 RFU"
same,maximum ThT fluorescence intensity (Imax),"[3]; 7.5 μg fibril material, single-site binding model","12,500 rfu"
same,Kd,"[3]; 7.5 μg fibril material, single-site binding model, read-out: dissociation constant (kd)",630 nM
same,ThT fluorescence level,[3]; titration experiment,"12,500 RFU"
same,ThT signal,[4],did not result in any ThT signal
same,ThT fluorescence level,[5],"2–5,000 RFU"
same,maximum ThT fluorescence intensity (Imax),[6],"1,000 rfu"
same,Kd,[6]; read-out: dissociation constant (kd),1450 nM
same,ThT fluorescence,[7],did not detect any fluorescence
same,Ligand bound (binding capacity),[8],42 nmol/mg fibril
same,Ligand bound (binding capacity),[9],35 nmol/mg fibril
same,Ligand bound (binding capacity),[10],10 nmol/mg fibril
same,Ligand bound (binding capacity),[11],18 nmol/mg fibril
same,Ligand bound (binding capacity),[12],42 nmol/mg fibril
Vitronectin: plasma/CSF protein bound to fibrils,Relative composition of plasma proteins bound: Ab1,[13],17.1 ± 1.9 % of total protein
same,Relative composition of plasma proteins bound: Ab2,[14],12.1 ± 2.1 % of total protein
same,Relative composition of plasma proteins bound: Glucagon,[15],3.7 ± 0.1 % of total protein
same,Relative composition of plasma proteins bound: C-36,[16],4.9 ± 0.5 % of total protein
same,Relative composition of plasma proteins bound: αSN,[17],9.3 ± 2.2 % of total protein
same,Relative composition of plasma proteins bound: FAS4-AD,[18],1.6 ± 0.4 % of total protein
same,contribution to the fibril interactomes,[19],3.7–17.1%
same,Relative composition of CSF proteins bound: Ab1,[20],1.1 ± 0.0 % of total protein
same,Relative composition of CSF proteins bound: Ab2,[21],1.3 ± 0.3 % of total protein
same,Relative composition of CSF proteins bound: Glucagon,[22],0.2 ± 0.1 % of total protein
same,Relative composition of CSF proteins bound: C-36,[23],0.8 ± 0.1 % of total protein
same,Relative composition of CSF proteins bound: αSN,[24],3.6 ± 0.2 % of total protein
same,Identification status of CSF protein bound: FAS4-AD,[25],—
same,contribution to the fibril interactomes,[26],0.2–3.6%

# From paper PMC6405930, “Conservation of the Amyloid Interactome Across Diverse Fibrillar Structures” (Scientific Reports, 2019)
